The subject of data set [1] is MMP10. Nature of the data set: EMT on target screen, MMP10 read-out. It is filed as cell-based, human. To be noted: for OT MMP10 Screen Z-score 2: as E13, duplicate 2; for OT MMP10 Screen Z-score 1: robust Z-score, HBEC donor Br299, duplicate 1, cut-off Z ≦ −1.25.
The subject of data set [2] is HBEC.
Data set [3] deals with Fibronectin (FN). Nature of the data set: EMT on target screen, FN read-out. It is filed as cell-based, human. To be noted: for OT FN Screen Z-score 2: as E11, duplicate 2; for Both (shRNA is a hit again in both OT assays, Yes/No): on target validation, Table 16; for OT FN Screen Z-score 1: robust Z-score, HBEC donor Br299, duplicate 1, cut-off Z ≦ −1.25.

“46 (ACTTCTGAGAGGTCACAGC; chemistry not given here) [compound 46]”: in data set [1], the “OT MMP10 Screen Z-score 2” value is -2.42 and the “OT MMP10 Screen Z-score 1” value was -2.20. For the same substance, in data set [2], the “OT CTB assay Z-score 1” value is recorded as -2.43 and the “OT CTB assay Z-score 2” value is recorded as -5.13. Further, in data set [3], the “OT FN Screen Z-score 2” value is listed as -7.86; the “Both (shRNA is a hit again in both OT assays, Yes/No)” value is reported as “yes”; the “OT FN Screen Z-score 1” value is -8.84.

“47 (GAACACGTACAAAGTCATT; chemistry not given here) [compound 47]”: in data set [1], the “OT MMP10 Screen Z-score 2” value was -6.24 and the “OT MMP10 Screen Z-score 1” value is reported as -11.24. In data set [2], the “OT CTB assay Z-score 1” value is given as -7.55 and the “OT CTB assay Z-score 2” value was -4.92. For the same substance, in data set [3], the “OT FN Screen Z-score 2” value was -5.03; the “Both (shRNA is a hit again in both OT assays, Yes/No)” value is reported as “no”; the “OT FN Screen Z-score 1” value is recorded as -4.88.

With “48 (GGATGGAGTTGGGAATCAC; chemistry not given here) [compound 48]”, in data set [1], the “OT MMP10 Screen Z-score 2” value is -2.43 and the “OT MMP10 Screen Z-score 1” value was -2.26. In data set [2], the “OT CTB assay Z-score 1” value is listed as -1.14 and the “OT CTB assay Z-score 2” value is given as -3.01. In data set [3], the “OT FN Screen Z-score 2” value is given as -3.44; the “Both (shRNA is a hit again in both OT assays, Yes/No)” value was “yes”; the “OT FN Screen Z-score 1” value is reported as -3.28.

On to “49 (GAGGATGCCATTAAGTATT; chemistry not given here) [compound 49]”, for which, in data set [1], the “OT MMP10 Screen Z-score 2” value stood at 0.87 and the “OT MMP10 Screen Z-score 1” value turned out to be 0.57. For the same substance, in data set [2], the “OT CTB assay Z-score 1” value is listed as -0.78 and the “OT CTB assay Z-score 2” value is -0.88. Also, in data set [3], the “OT FN Screen Z-score 2” value is -1.84; the “Both (shRNA is a hit again in both OT assays, Yes/No)” value is reported as “no”; the “OT FN Screen Z-score 1” value was -1.75.

As for “50 (GAGGCAGCCTTGTACTCTT; chemistry not given here) [compound 50]”, in data set [1], the “OT MMP10 Screen Z-score 2” value is -0.49 and the “OT MMP10 Screen Z-score 1” value is reported as 1.32. For the same substance, in data set [2], the “OT CTB assay Z-score 1” value was -0.51 and the “OT CTB assay Z-score 2” value was found to be 2.33. In addition, in data set [3], the “OT FN Screen Z-score 2” value is -4.42; the “Both (shRNA is a hit again in both OT assays, Yes/No)” value is given as “no”; the “OT FN Screen Z-score 1” value is on record as -2.42.

Consider “51 (GGATCTTGGGTCCTATCCC; chemistry not given here) [compound 51]”, for which, in data set [1], the “OT MMP10 Screen Z-score 2” value is reported as -0.23 and the “OT MMP10 Screen Z-score 1” value was -0.02. Besides, in data set [2], the “OT CTB assay Z-score 1” value is reported as -0.73 and the “OT CTB assay Z-score 2” value was -2.03. In addition, in data set [3], the “OT FN Screen Z-score 2” value is -3.08; the “Both (shRNA is a hit again in both OT assays, Yes/No)” value was “no”; the “OT FN Screen Z-score 1” value is listed as -2.90.

For the substance “52 (TGAATACTATGTGGGATTC; chemistry not given here) [compound 52]”, in data set [1], the “OT MMP10 Screen Z-score 2” value is on record as 0.95 and the “OT MMP10 Screen Z-score 1” value was 1.96. Moreover, in data set [2], the “OT CTB assay Z-score 1” value was -3.43 and the “OT CTB assay Z-score 2” value is listed as -3.45. Also, in data set [3], the “OT FN Screen Z-score 2” value is recorded as -3.74; the “Both (shRNA is a hit again in both OT assays, Yes/No)” value is “yes”; the “OT FN Screen Z-score 1” value is listed as -3.30.

As for “53 (TCAGCTGGGCGCTATGTTC; chemistry not given here) [compound 53]”, in data set [1], the “OT MMP10 Screen Z-score 2” value worked out at 0.45 and the “OT MMP10 Screen Z-score 1” value is on record as -0.41. In data set [2], the “OT CTB assay Z-score 1” value is given as -3.97 and the “OT CTB assay Z-score 2” value is reported as -4.28. For the same substance, in data set [3], the “OT FN Screen Z-score 2” value is -2.98; the “Both (shRNA is a hit again in both OT assays, Yes/No)” value is listed as “no”; the “OT FN Screen Z-score 1” value was -3.01.

As to “54 (GACTGGAAAGCGACGGGTC; chemistry not given here) [compound 54]”, in data set [1], the “OT MMP10 Screen Z-score 2” value came out at 0.94 and the “OT MMP10 Screen Z-score 1” value came to 0.62. In data set [2], the “OT CTB assay Z-score 1” value is recorded as -4.02 and the “OT CTB assay Z-score 2” value is -5.83. Also, in data set [3], the “OT FN Screen Z-score 2” value is -3.15; the “Both (shRNA is a hit again in both OT assays, Yes/No)” value is given as “no”; the “OT FN Screen Z-score 1” value was -3.47.

The values are drawn from patent US20160003808A1, “MOLECULAR TARGETS AND COMPOUNDS, AND METHODS TO IDENTIFY THE SAME, USEFUL IN THE TREATMENT OF DISEASES ASSOCIATED WITH EPITHELIAL MESENCHYMAL TRANSITION” (GALAPAGOS NV, priority 2013, published 2016).
